We go through 4 compounds from publication PMC12560828, “Chemical structure drives developmental toxicity of alkyl-substituted naphthalenes in zebrafish” (Environment international, 2025).

In series [1] the test system is zebrafish larvae, 120 hpf. Nature of the series: Larval photomotor response (LPR) assay after vial exposure. The conditions noted are these: for fold_change: LPR. In kind it is in vivo, Danio rerio. The procedure:
(§1) When embryos were 6 hpf they were bleached in groups of 1000 or less to limit bacterial growth in sealed vials. Embryos were placed in a strainer for transfer between solutions in 500 mL containers. […] Pools of eight embryos were placed into 2 mL clear glass screw cap exposure vials with polyvinyl-faced pulp liner (Avantar Radnor, PA, United States) using a glass Pasteur pipette. Excess EM was removed, and 2 mL of fresh EM was immediately added. A total of 10 uL of 200x working stock (in DMSO) was added to each vial, then immediately capped and inverted three times to mix. […] Vials were loaded into a custom 3D printed vial holder for slow end-over-end rotation in a dark 28 °C incubator overnight. […] At 24 hpf, embryos were removed from exposure vials and singulated into 96-well plates loaded with 100 μL chemical-free EM. Each exposure vial group was maintained in plate columns. After loading into 96-well plates, embryos were assessed for 24-hour mortality. For the remainder of the exposure, plates were kept stationary at 28 °C in the dark, until 120 hpf when morphology screening and the larval photo motor response (LPR) assay were conducted, section 2.3.2 and section 2.3.3, respectively.
Each treatment group was replicated over four vials, resulting in 32 embryos per treatment, split over two replicate 96-well plates per chemical. […] Vial groups of plated larvae were tracked to assess the impact of the vial on the results. All reported concentrations were nominal water concentrations and are included in SI-T4.
The LPR assay was conducted at 120 hpf. […] Larval movement was tracked throughout minutes 6–24. Animals dead or morphologically abnormal were excluded from the analysis, and if more than 30 % of the wells in a treatment group were excluded, the treatment was removed.
Movement values were binned into 6s intervals, log normalized and used to calculate area under the curve (AUC). AUC values from the first cycle after calibration were used to calculate the LEL for each period (light and dark).

Series [2] relates to early life stage zebrafish (Danio rerio) embryos. Briefly: Developmental toxicity morphology screen, sealed rotating vial exposure. Also noted: bmd, MO24 / bmd, MORT / bmd, ANY_ / bmd, AXIS / bmd, CRAN / bmd, EDEM / bmd, LTRK / bmd, MUSC / bmdL, ANY_ / bmdU, ANY_ / bmdL, AXIS / bmdU, AXIS / bmdL, CRAN / bmdU, CRAN / bmdL, EDEM / bmdU, EDEM / bmdL, LTRK / bmdU, LTRK / bmdL, MO24 / bmdU, MO24 / bmdL, MORT / bmdU, MORT: unit not given here. Type of series: in vivo. The conditions noted are these: for BMC50 Any effect: Fig. 2 heatmap, exposure 6-24 hpf in vials, summary of all endpoints; for any effect BMD50: SI-T5; for bmd, MO24: endpoint MO24; for bmd, MORT: endpoint MORT; for bmd, ANY_: morphology endpoint ANY_ (any effect). The procedure: as §1
Each treatment group was replicated over four vials, resulting in 32 embryos per treatment, split over two replicate 96-well plates per chemical. […] All reported concentrations were nominal water concentrations and are included in SI-T4.
At 24 hpf embryos were assessed for mortality (MO24). At 120 hpf embryos were assessed for abnormality in […] morphological endpoints: mortality (MORT), edemas (EDEM), bent axis (AXIS), touch response (TCHR), craniofacial (CRAN), muscular/cardiovascular (MUSC), lower trunk (LRTK), brain (BRAN), skin (SKIN), and notochord malformations (NC). Morphological assessments were made by a team of three to four individuals. The team was blinded to the identity, plate layout, and concentrations of the chemicals, thereby minimizing bias in morphological screening assessment. To ensure the assessments were consistent, concentration–response reproducibility of a parathion ethyl quality control plate was performed along with each experimental exposure set up. Details of all measured endpoints can be found at Developmental toxicity zebrafish phenotype atlas. […] Each endpoint was scored as a binary presence/absence and scores were compiled into an “Any effect” endpoint, the presence of abnormality in any individual endpoint.
The Any effect percent was used to calculate the BMC50, 50 % change relative to the background for each endpoint and chemical. All values were reported as the nominal exposure concentration.

Setting [3] is: period dark, round 1, conc 3.125.
Where [4] appears, read: period dark, round 1, conc 6.25.
The mark [5] stands for this setting: period dark, round 1, conc 12.5.
[6] abbreviates: period light, round 1, conc 3.125.
Where [7] appears, read: period light, round 1, conc 6.25.
[8] abbreviates: period light, round 1, conc 12.5.

Regarding `Cc1ccc2c(C)c(C)ccc2c1C` [1,2,5,6-tetramethylnaphthalene], the fold_change in series [1] (setting [3]) is -0.03133; in series [1] (setting [4]), -0.4187; in series [1] (setting [5]) it was -0.4196; in series [1] (period dark, round 1, conc 25) it was -0.1628; in series [1] (period dark, round 1, conc 50) it was -0.3813; in series [1] (setting [6]) it was 0.2549. Further, the fold_change in series [1] (setting [7]) is recorded as -0.3197; in series [1] (setting [8]) it was 0.8672; in series [1] (period light, round 1, conc 25), -0.1531; in series [1] (period light, round 1, conc 50), 0.1565.

With `Cc1ccc2ccccc2c1C` [1,2-dimethylnaphthalene], in series [1] (120 hpf, light/dark periods, result in words), the LPR behavioral effect result was “active”.

With `Cc1cc2c(C)ccc(C)c2cc1C` [1,4,6,7-tetramethylnaphthalene], in series [2] (Fig. 2, nominal concentration), the “BMC50 AXIS (curved or bent body axis at 120 hpf)” value stood at 21.1 µM, the “BMC50 CRAN (craniofacial malformation at 120 hpf)” value came out at 23.9 µM, the “BMC50 EDEM (pericardial and/or yolk sac edema at 120 hpf)” value came out at 22.5 µM and the “BMC50 LTRK (lower trunk and/or caudal fin at 120 hpf)” value was found to be 22.6 µM. In series [2] (Fig. 2, nominal concentration), the “BMC50 MO24 (mortality at 24 hpf)” value came to 35.4 µM and the “BMC50 MORT (mortality at 120 hpf)” value is 29.4 µM. Further, the “BMC50 Any effect” value in series [2] (nominal concentration) was 20.5 µM. Further, the “any effect BMD50” value in series [2] turned out to be 20.47 µM. Further, in series [2] (benchmark dose), the “bmd, MO24” value worked out at 35.4057; the “bmd, MORT” value came to 29.3744; the “bmd, ANY_” value is reported as 20.4728. Further, the “bmd, AXIS” value in series [2] (benchmark dose, morphology endpoint AXIS) is on record as 21.1106. For the same compound, in series [2] (benchmark dose, morphology endpoint CRAN), the “bmd, CRAN” value is 23.8517. Moreover, the “bmd, EDEM” value in series [2] (benchmark dose, morphology endpoint EDEM) came to 22.5215. The “bmd, LTRK” value in series [2] (benchmark dose, morphology endpoint LTRK) worked out at 22.6067. Moreover, the fold_change in series [1] (setting [3]) came to 0.4047. The fold_change in series [1] (setting [4]) is on record as -0.3364. Moreover, the fold_change in series [1] (setting [5]) is -0.3332. Moreover, the fold_change in series [1] (setting [6]) was -0.4049. Besides, the fold_change in series [1] (setting [7]) amounted to 0.02072. Moreover, the fold_change in series [1] (setting [8]) is recorded as -0.2213.

On to `Cc1ccc(C)c2ccccc12` [1,4-dimethylnaphthalene], for which the “BMC50 MO24 (mortality at 24 hpf)” value in series [2] (Fig. 2, nominal concentration) stood at 30.4 µM. For the same compound, the “BMC50 MORT (mortality at 120 hpf)” value in series [2] (Fig. 2, nominal concentration) amounted to 28.3 µM. In series [2] (nominal concentration), the “BMC50 Any effect” value worked out at 24.9 µM. In series [2], the “any effect BMD50” value worked out at 24.93 µM. For the same compound, the “bmd, MO24” value in series [2] (benchmark dose) stood at 30.4433. Further, in series [2] (benchmark dose), the “bmd, MORT” value stood at 28.3398. The “bmd, ANY_” value in series [2] (benchmark dose) was found to be 24.9263. Moreover, the fold_change in series [1] (setting [3]) is 0.2846; in series [1] (setting [4]), -0.05841; in series [1] (setting [5]), -0.1506; in series [1] (period dark, round 1, conc 25), -0.2067; in series [1] (setting [6]), 0.303; in series [1] (setting [7]), -0.4509. In addition, the fold_change in series [1] (setting [8]) is listed as 1.1; in series [1] (period light, round 1, conc 25), 0.6023.
